{
  "source": "patent US20220160669A1",
  "about": "“PARENTERAL NUTRITION FORMULATION” (BAXTER INTERNATIONAL INC., priority 2020, published 2022)",
  "origin": "cited, not measured here",
  "details": "human, in vivo; cited from earlier work",
  "data": [
    {"compound": "CCCC(=O)[O-].[Na+]", "note": "[sodium butyrate]", "values": [
      {"measurement": "clearance rate", "value": "83 ± 12", "unit": "mL/min/kg"}
    ]}
  ]
}
